Measurements from US9408856B2, “Topical steroidal formulations” (Temple University—Of The Commonwealth System of Higher …, priority 2008, dated 2016).
Values joined by “and” are separate entries in the source; they are usually repeats but may differ in a detail not shown here. Equal values may be shown once.

Columns and labels:
[1] = tested on: TPA-stimulated epidermal DNA synthesis in mouse epidermis; test: TPA-induced epidermal DNA synthesis in mouse epidermis, transdermal fluasterone; type: in vivo, CD-1 mice; settings: 20 h
[2] = PK study in human volunteers (phase I); type: in vivo; settings: 12 human volunteers; calculated for 1200 mg oral dose from AUC0-24/mg at 800 mg or 1600 mg daily
Procedure: An oral single dose PK experiment in mice following administration of 200 mg/kg fluasterone was performed. The calculated AUC0-24 was 2,242 (ngXh/mL). A PK study was also performed in 12 human volunteers as part of a phase I fluasterone study. The volunteers received either 800 mg or 1600 mg fluasterone orally as a daily dose. The AUC0-24/mg dose was calculated.

[3] = tested on: TPA-stimulated epidermal DNA synthesis in mouse epidermis; test: TPA-induced epidermal DNA synthesis in mouse epidermis, oral fluasterone; type: in vivo, CD-1 mice; settings: for cpm/μg DNA / μg DNA: Table 4, 20 h, group mean
Procedure: In dose-response experiments the anti-hyperplastic efficacy of fluasterone in TPA-treated mouse epidermis to determine bioavailability following different routes of administration was measured. Mice were treated with a single dose of fluasterone (either orally, subcutaneously, or transdermally) followed by a single application of TPA to the shaved back one hour latter. In case of transdermal administration, fluasterone is applied in a topical formulation to the shaved abdomen to allow for systemic absorption to the back of the animal. Twenty hours after TPA application, the mice are injected with 60 μCi of [3H] thymidine, sacrificed 20 minutes later, and a 2×2 cm2 of skin from the shaved back is excised and processed for the determination of the amount of [3H] thymidine incorporated per unit of epidermal DNA. (Hennings et. al., Cancer Res. 28:543-552, 1968).
Fluasterone suspensions were prepared using sesame oil as vehicle. Micronized fluasterone was obtained from Pharmaceutics International, Inc. Five suspensions were prepared—100 mg/kg (13 mg/mL), 200 mg/kg (26.5 mg/mL), 400 mg/kg (52.4 mg/mL), 800 mg/kg (105.5 mg/mL), and 1200 mg/kg (158.3 mg/mL). The fluasterone for each suspension was weighed, placed into a plastic vial, and the required volume of sesame oil was added to the vial. The fluasterone was suspended in the sesame oil with the use of a Tekmar Tissumizer. Magnetic stirrer bars were added to the various suspensions which were stirred on a magnetic stirrer prior to treatment. Control and TPA groups received sesame oil alone.
Female CD-1 mice were obtained from Charles River Laboratories, Wilmington, Mass. at 35-37 days of age.
The mice were housed three per cage in plastic shoebox cages on Alphacel bedding with 12 hours of alternating light and dark in the CAF Animal Facility. The mice had ad libitum access to Purina 5.015 chow and acidified tap water (pH≦2.6). The mice were shaved, weighed and distributed into groups of three. • Control The mice were treated orally with 0.2 mL of sesame oil. One hour after treatment with sesame oil, the mice were treated topically with 0.2 mL of acetone. • TPA The mice were treated orally with 0.2 mL of sesame oil. […] One hour after treatment with fluasterone, the mice were treated topically with 2 μg of TPA in 0.2 mL of acetone.
The mice were sacrificed 20 hours after treatment by an overdose of CO2. Twenty minutes prior to sacrifice, the mice were injected with 60 μCi of [^3H]thymidine (Amersham). The mice were treated with a depilatory to remove any residual hair. A 2×2 cm^2 piece of skin was excised, placed in ice water for 30 seconds, then in 55° C. water for 30 seconds, then in ice water again for 30 seconds. The epidermis was s raped off using a scalpel and the scrapings were placed into ice cold 0.4N TCA. The scrapings were homogenized using a Tekmar Tissumizer (80% power for 30 seconds). The homogenates were centrifuged for 20 minutes at 3,000×g. The precipitates were washed 3× with 0.2N TCA. The TCA was removed and the precipitates were stored at −20° C. overnight. The next day, the precipitates were washed 2× with absolute ethanol. The DNA in each sample was hydrolyzed with 0.5N TCA for 30 minutes at 90°. The tubes were centrifuged for 20 minutes at 3000×g. A 0.2 mL aliquot of each hydrolysate was counted in a LKB Rackbeta scintillation counter using Scintiverse II BD as the counting medium. DNA content was determined by the Burton diphenylamine assay.
102.7 mg of Micronized fluasterone I was weighed using a Mettler AE-50 balance, transferred to a glass scintillation vial, and homogenized in 6.0 mL of carboxymethylcellulose-Tween 80 using a Tekmar Tissumizer (200 mg/kg micronized I suspension, 200 MI). 88.4 mg of micronized fluasterone II was then weighed, transferred to a glass scintillation vial, and homogenized in 5.2 mL of CMC-Tween using a Tekmar Tissumizer (200 mg/kg micronized II suspension, 200 MII).

[4] = carbitol solution, 5 mg/kg transdermal (abdomen) 1 h before 2 μg TPA (back), single mice, 5 mg/kg
[5] = ethanol:limonene:isopropyl myristate (81:15:4) solution, 1.5 mg/kg transdermal (abdomen) 1 h before 2 μg TPA (back), single mice, 1.5 mg/kg
[6] = ethanol:limonene:isopropyl myristate (81:15:4) solution, 5 mg/kg transdermal (abdomen) 1 h before 2 μg TPA (back), single mice, 5 mg/kg
[7] = micronized suspension in ethanol:water:Tween 80 (76:19:5), 1.5 mg/kg transdermal (abdomen) 1 h before 2 μg TPA (back), single mice and group mean, 1.5 mg/kg
[8] = micronized suspension in ethanol:water:Tween 80 (76:19:5), 1.5 mg/kg transdermal (abdomen) 1 h before 2 μg TPA (back), single mice, 1.5 mg/kg
[9] = micronized suspension in ethanol:water:Tween 80 (76:19:5), 2.5 mg/kg transdermal (abdomen) 1 h before 2 μg TPA (back), single mice, 2.5 mg/kg
[10] = 100 mg/kg p.o. micronized in sesame oil 1 h before 2 μg TPA
[11] = 200 mg/kg p.o. micronized in sesame oil 1 h before 2 μg TPA
[12] = 400 mg/kg p.o. micronized in sesame oil 1 h before 2 μg TPA
[13] = 800 mg/kg p.o. micronized in sesame oil 1 h before 2 μg TPA
[14] = 1200 mg/kg p.o. micronized in sesame oil 1 h before 2 μg TPA

## C[C@]12CCCCC1=CC[C@@H]1[C@@H]2CC[C@]2(C)C(=O)[C@H](F)C[C@@H]12 [Fluasterone, 16α-fluoro-5-androsten-17-one]
[1]; [4]
  cpm: 5,373 cpm and 5,080 cpm
  μg DNA/0.2 mL: 10.0 μg DNA/0.2 mL and 10.8 μg DNA/0.2 mL
[1]; ethanol:limonene:isopropyl myristate (81:15:4) solution, 1.5 mg/kg transdermal (abdomen) 1 h before 2 μg TPA (back), single mice and group mean, 1.5 mg/kg
  μg DNA/0.2 mL: 25.8 μg DNA/0.2 mL and 25.1 μg DNA/0.2 mL
[1]; [5]
  corrected cpm: 5,854 cpm and 3,703 cpm
  cpm: 5,883 cpm and 3,732 cpm
[1]; ethanol:limonene:isopropyl myristate (81:15:4) solution, 2.5 mg/kg transdermal (abdomen) 1 h before 2 μg TPA (back), single mice and group mean (p < 0.05 vs TPA), 2.5 mg/kg
  μg DNA/0.2 mL: 18.1 μg DNA/0.2 mL and 15.3 μg DNA/0.2 mL
[1]; ethanol:limonene:isopropyl myristate (81:15:4) solution, 5 mg/kg transdermal (abdomen) 1 h before 2 μg TPA (back), single mice and group mean (p < 0.05 vs TPA), 5 mg/kg
  μg DNA/0.2 mL: 15.9 μg DNA/0.2 mL and 17.3 μg DNA/0.2 mL
[1]; ethanol:limonene:isopropyl myristate (81:15:4) solution, 5 mg/kg transdermal (abdomen) 1 h before 2 μg TPA (back), single mice and group mean, 5 mg/kg
  cpm/μg DNA: 532.5 cpm/μg DNA and 603.2 cpm/μg DNA
[1]; [6]
  corrected cpm: 8,467 cpm and 10,436 cpm
  cpm: 8,496 cpm and 10,465 cpm
[1]; [7]
  cpm/μg DNA: 135.7 cpm/μg DNA and 98.9 cpm/μg DNA
  μg DNA/0.2 mL: 34.3 μg DNA/0.2 mL and 35.2 μg DNA/0.2 mL
[1]; [8]
  corrected cpm: 4,655 cpm and 3,481 cpm
  cpm: 4,684 cpm and 3,510 cpm
[1]; micronized suspension in ethanol:water:Tween 80 (76:19:5), 2.5 mg/kg transdermal (abdomen) 1 h before 2 μg TPA (back), single mice and group mean (p < 0.02 vs TPA), 2.5 mg/kg
  μg DNA/0.2 mL: 19.6 μg DNA/0.2 mL and 16.6 μg DNA/0.2 mL
[1]; micronized suspension in ethanol:water:Tween 80 (76:19:5), 2.5 mg/kg transdermal (abdomen) 1 h before 2 μg TPA (back), single mice and group mean, 2.5 mg/kg
  cpm/μg DNA: 109.5 cpm/μg DNA and 139.0 cpm/μg DNA
[1]; [9]
  corrected cpm: 2,147 cpm and 2,308 cpm
  cpm: 2,176 cpm and 2,337 cpm
[1]; micronized suspension in ethanol:water:Tween 80 (76:19:5), 5 mg/kg transdermal (abdomen) 1 h before 2 μg TPA (back), single mice and group mean (p < 0.01 vs TPA), 5 mg/kg
  μg DNA/0.2 mL: 16.5 μg DNA/0.2 mL and 18.9 μg DNA/0.2 mL
[2]
  AUC0-24: 2,316 ngXh/mL
[3]; [10]
  cpm/μg DNA: 539.8 ± 75.9 cpm/μg DNA
  μg DNA: 15.5 ± 3.0 µg
[3]; [11]
  cpm/μg DNA: 185.0 ± 38.2 cpm/μg DNA
  μg DNA: 6.0 ± 1.9 µg
[3]; [12]
  cpm/μg DNA: 208.8 ± 144.2 cpm/μg DNA
  μg DNA: 6.6 ± 2.6 µg
[3]; [13]
  cpm/μg DNA: 634.3 ± 151.6 cpm/μg DNA
  μg DNA: 6.2 ± 1.0 µg
[3]; [14]
  cpm/μg DNA: 850.0 ± 256.0 cpm/μg DNA
  μg DNA: 6.3 ± 1.5 µg
[3]; mouse skin, single oral dose
  lowest effective oral dose which abolishes TPA-stimulated epidermal hyperplasia ([3H]thymidine incorporation and epidermal DNA content): 200 mg/kg
